Data published in ChEMBL document CHEMBL1150311, “4-Methyl-5-phenyl triazoles as selective inhibitors of 11beta-hydroxysteroid dehydrogenase type I” (Bioorg Med Chem Lett, 2008).

Test system: Mus musculus
Assay: Inhibition of [3H]cortisone to [3H]cortisol conversion in mouse at 10 mg/kg, po administered as single dose after 4 hrs
Type: functional

SMILES | inhibition in vivo at 10 mg/kg [%]
Cn1c(-c2ccc(O)c(F)c2)nnc1C1(c2ccc(Cl)cc2)CCC1 | 6
Cn1c(-c2ccc(Cl)cc2)nnc1C1(c2ccc(Cl)cc2)CCC1 | 14
COc1ccccc1-c1nnc(C2(c3ccc(Cl)cc3)CCC2)n1C | 12

Target: 11-beta-hydroxysteroid dehydrogenase 1 (Mus musculus, UniProt P50172)
Sequence (P50172 whole entry): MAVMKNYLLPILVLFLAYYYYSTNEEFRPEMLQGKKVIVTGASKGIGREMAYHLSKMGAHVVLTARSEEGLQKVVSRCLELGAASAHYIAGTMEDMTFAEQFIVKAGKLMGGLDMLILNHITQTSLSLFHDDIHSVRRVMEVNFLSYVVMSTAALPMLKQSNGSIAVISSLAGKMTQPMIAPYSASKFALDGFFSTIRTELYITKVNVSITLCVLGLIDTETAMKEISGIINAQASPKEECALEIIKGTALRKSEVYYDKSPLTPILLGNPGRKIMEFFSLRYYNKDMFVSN
Assay: Inhibition of mouse 11beta HSD1 by SPA assay

SMILES | IC50 [nM]
Cn1c(-c2ccc(Oc3ccccc3)cc2)nnc1C1(c2ccc(Cl)cc2)CCC1 | 3.7
Cn1c(-c2ccc(-n3ccnc3S(C)(=O)=O)cc2Cl)nnc1C1(c2ccc(Cl)cc2)CCC1 | 9.4
Cc1cn(-c2ccc(-c3nnc(C4(c5ccc(Cl)cc5)CCC4)n3C)c(Cl)c2)c(C)n1 | 7.2
Cn1c(-c2cccc(O)c2)nnc1C1(c2ccc(Cl)cc2)CCC1 | 19
Cn1c(-c2ccc(C(C)(C)C)cc2)nnc1C1(c2ccc(Cl)cc2)CCC1 | 1.8
Cn1c(-c2ccc(C(F)(F)F)cc2)nnc1C1(c2ccc(Cl)cc2)CCC1 | 26
Cn1c(-c2ccccc2F)nnc1C1(c2ccc(Cl)cc2)CCC1 | 21
Cn1c(-c2ccc(F)cc2)nnc1C1(c2ccc(Cl)cc2)CCC1 | 101
Cn1c(-c2ccc(I)cc2)nnc1C1(c2ccc(Cl)cc2)CCC1 | 8.2
Cn1c(-c2ccc(Cl)cc2Cl)nnc1C1(c2ccc(Cl)cc2)CCC1 | 13
Cc1nc2ccccc2n1-c1ccc(-c2nnc(C3(c4ccc(Cl)cc4)CCC3)n2C)c(Cl)c1 | 57
Cn1c(-c2cccc(F)c2)nnc1C1(c2ccc(Cl)cc2)CCC1 | 163
Cn1c(-c2ccc(-c3ccc(F)cc3)cc2)nnc1C1(c2ccc(Cl)cc2)CCC1 | 9.1
Cn1c(-c2ccc(O)c(F)c2)nnc1C1(c2ccc(Cl)cc2)CCC1 | 61
Cn1c(-c2cccc(OC(F)(F)F)c2)nnc1C1(c2ccc(Cl)cc2)CCC1 | 36
CSc1nccn1-c1ccc(-c2nnc(C3(c4ccc(Cl)cc4)CCC3)n2C)c(Cl)c1 | 3.9
Cn1c(-c2ccc(Cl)cc2)nnc1C1(c2ccc(Cl)cc2)CCC1 | 43
COc1ccccc1-c1nnc(C2(c3ccc(Cl)cc3)CCC2)n1C | 7.8

Test system: Mus musculus
Assay: Inhibition of [3H]cortisone to [3H]cortisol conversion in mouse at 10 mg/kg, po administered as single dose after 1 hr
Type: functional

SMILES | inhibition in vivo at 10 mg/kg [%]
Cn1c(-c2ccc(O)c(F)c2)nnc1C1(c2ccc(Cl)cc2)CCC1 | 3
Cn1c(-c2ccc(Cl)cc2)nnc1C1(c2ccc(Cl)cc2)CCC1 | 20
COc1ccccc1-c1nnc(C2(c3ccc(Cl)cc3)CCC2)n1C | 28

Target: T1, 11-beta-hydroxysteroid dehydrogenase type 2 (Mus musculus, UniProt P51661)
T1 sequence (P51661 whole entry): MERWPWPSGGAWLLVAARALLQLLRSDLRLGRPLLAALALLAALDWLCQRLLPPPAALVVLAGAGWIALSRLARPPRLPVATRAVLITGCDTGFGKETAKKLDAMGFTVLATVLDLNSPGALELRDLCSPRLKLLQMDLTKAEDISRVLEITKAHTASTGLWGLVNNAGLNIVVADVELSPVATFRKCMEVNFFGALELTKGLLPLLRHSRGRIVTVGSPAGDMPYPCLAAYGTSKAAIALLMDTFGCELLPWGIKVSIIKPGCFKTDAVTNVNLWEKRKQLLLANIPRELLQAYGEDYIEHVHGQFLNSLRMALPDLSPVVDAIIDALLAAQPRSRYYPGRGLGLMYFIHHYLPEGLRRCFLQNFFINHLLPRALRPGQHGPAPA
Assay: Inhibition of mouse 11beta HSD2

SMILES | IC50 [nM]
Clc1ccc(C2(c3nnc4n3CCCCCC4)CCC2)cc1 | > 4000
Cn1c(-c2ccc(Oc3ccccc3)cc2)nnc1C1(c2ccc(Cl)cc2)CCC1 | > 4000
Cn1c(-c2ccc(-n3ccnc3S(C)(=O)=O)cc2Cl)nnc1C1(c2ccc(Cl)cc2)CCC1 | > 4000
Cc1cn(-c2ccc(-c3nnc(C4(c5ccc(Cl)cc5)CCC4)n3C)c(Cl)c2)c(C)n1 | > 4000
Cn1c(-c2cccc(O)c2)nnc1C1(c2ccc(Cl)cc2)CCC1 | > 4000
Cn1c(-c2ccc(C(C)(C)C)cc2)nnc1C1(c2ccc(Cl)cc2)CCC1 | > 4000
Cn1c(-c2ccc(C(F)(F)F)cc2)nnc1C1(c2ccc(Cl)cc2)CCC1 | > 4000
Cn1c(-c2ccccc2F)nnc1C1(c2ccc(Cl)cc2)CCC1 | > 4000
Cn1c(-c2ccc(F)cc2)nnc1C1(c2ccc(Cl)cc2)CCC1 | > 4000
Cn1c(-c2ccc(I)cc2)nnc1C1(c2ccc(Cl)cc2)CCC1 | > 4000
Cn1c(-c2ccc(Cl)cc2Cl)nnc1C1(c2ccc(Cl)cc2)CCC1 | > 4000
Cc1nc2ccccc2n1-c1ccc(-c2nnc(C3(c4ccc(Cl)cc4)CCC3)n2C)c(Cl)c1 | > 4000
Cn1c(-c2cccc(F)c2)nnc1C1(c2ccc(Cl)cc2)CCC1 | > 4000
Cn1c(-c2ccc(-c3ccc(F)cc3)cc2)nnc1C1(c2ccc(Cl)cc2)CCC1 | > 4000
Cn1c(-c2ccc(O)c(F)c2)nnc1C1(c2ccc(Cl)cc2)CCC1 | > 4000
Cn1c(-c2cccc(OC(F)(F)F)c2)nnc1C1(c2ccc(Cl)cc2)CCC1 | > 4000
CSc1nccn1-c1ccc(-c2nnc(C3(c4ccc(Cl)cc4)CCC3)n2C)c(Cl)c1 | > 4000
Cn1c(-c2ccc(Cl)cc2)nnc1C1(c2ccc(Cl)cc2)CCC1 | > 4000
COc1ccccc1-c1nnc(C2(c3ccc(Cl)cc3)CCC2)n1C | > 4000

Target: T2, Nuclear receptor subfamily 1 group I member 2 (Homo sapiens, UniProt O75469)
T2 sequence (O75469 whole entry): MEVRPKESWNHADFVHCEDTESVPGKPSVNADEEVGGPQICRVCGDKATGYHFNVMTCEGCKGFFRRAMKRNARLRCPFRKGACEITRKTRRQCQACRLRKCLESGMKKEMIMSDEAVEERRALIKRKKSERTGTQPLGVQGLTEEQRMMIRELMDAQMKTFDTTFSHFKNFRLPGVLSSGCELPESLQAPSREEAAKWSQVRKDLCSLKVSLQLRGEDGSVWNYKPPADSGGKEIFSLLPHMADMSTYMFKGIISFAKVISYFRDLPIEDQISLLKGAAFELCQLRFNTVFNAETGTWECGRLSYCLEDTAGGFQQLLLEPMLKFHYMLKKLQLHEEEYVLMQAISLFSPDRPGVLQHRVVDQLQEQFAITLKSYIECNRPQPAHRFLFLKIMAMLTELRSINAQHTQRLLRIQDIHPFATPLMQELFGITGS
Assay: Agonist activity at human PXR at 10 uM
Type: functional

SMILES | Activity [%]
Cn1c(-c2ccc(-n3ccnc3S(C)(=O)=O)cc2Cl)nnc1C1(c2ccc(Cl)cc2)CCC1 | 23

Target: T2, Nuclear receptor subfamily 1 group I member 2
Assay: Agonist activity at human PXR
Type: functional

SMILES | EC50 [nM]
Cn1c(-c2ccc(-n3ccnc3S(C)(=O)=O)cc2Cl)nnc1C1(c2ccc(Cl)cc2)CCC1 | 7900

Target: 11-beta-hydroxysteroid dehydrogenase 1 (Homo sapiens, UniProt P28845)
Sequence (P28845 whole entry): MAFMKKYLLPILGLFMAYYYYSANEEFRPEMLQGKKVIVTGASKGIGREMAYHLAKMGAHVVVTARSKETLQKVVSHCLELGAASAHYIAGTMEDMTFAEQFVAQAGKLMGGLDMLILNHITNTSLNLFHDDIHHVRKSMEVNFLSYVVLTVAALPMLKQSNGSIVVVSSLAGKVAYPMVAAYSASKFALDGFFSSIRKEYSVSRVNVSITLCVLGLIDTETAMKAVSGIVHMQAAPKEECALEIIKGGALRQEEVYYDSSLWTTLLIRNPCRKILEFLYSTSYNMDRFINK
Assay: Inhibition of human 11beta HSD1 by SPA assay

SMILES | IC50 [nM]
Clc1ccc(C2(c3nnc4n3CCCCCC4)CCC2)cc1 | 1.3
Cn1c(-c2ccc(Oc3ccccc3)cc2)nnc1C1(c2ccc(Cl)cc2)CCC1 | 26
Cn1c(-c2ccc(-n3ccnc3S(C)(=O)=O)cc2Cl)nnc1C1(c2ccc(Cl)cc2)CCC1 | 14
Cc1cn(-c2ccc(-c3nnc(C4(c5ccc(Cl)cc5)CCC4)n3C)c(Cl)c2)c(C)n1 | 6.9
Cn1c(-c2cccc(O)c2)nnc1C1(c2ccc(Cl)cc2)CCC1 | 1
Cn1c(-c2ccc(C(C)(C)C)cc2)nnc1C1(c2ccc(Cl)cc2)CCC1 | 14
Cn1c(-c2ccc(C(F)(F)F)cc2)nnc1C1(c2ccc(Cl)cc2)CCC1 | 9.3
Cn1c(-c2ccccc2F)nnc1C1(c2ccc(Cl)cc2)CCC1 | 2
Cn1c(-c2ccc(F)cc2)nnc1C1(c2ccc(Cl)cc2)CCC1 | 1.5
Cn1c(-c2ccc(I)cc2)nnc1C1(c2ccc(Cl)cc2)CCC1 | 3.8
Cn1c(-c2ccc(Cl)cc2Cl)nnc1C1(c2ccc(Cl)cc2)CCC1 | 1
Cc1nc2ccccc2n1-c1ccc(-c2nnc(C3(c4ccc(Cl)cc4)CCC3)n2C)c(Cl)c1 | 12
Cn1c(-c2cccc(F)c2)nnc1C1(c2ccc(Cl)cc2)CCC1 | 2.2
Cn1c(-c2ccc(-c3ccc(F)cc3)cc2)nnc1C1(c2ccc(Cl)cc2)CCC1 | 11
Cn1c(-c2ccc(O)c(F)c2)nnc1C1(c2ccc(Cl)cc2)CCC1 | 2
Cn1c(-c2cccc(OC(F)(F)F)c2)nnc1C1(c2ccc(Cl)cc2)CCC1 | 2.2
CSc1nccn1-c1ccc(-c2nnc(C3(c4ccc(Cl)cc4)CCC3)n2C)c(Cl)c1 | 3.9
Cn1c(-c2ccc(Cl)cc2)nnc1C1(c2ccc(Cl)cc2)CCC1 | 2.7
COc1ccccc1-c1nnc(C2(c3ccc(Cl)cc3)CCC2)n1C | 2.7

Target: T3, 11-beta-hydroxysteroid dehydrogenase type 2 (Homo sapiens, UniProt P80365)
T3 sequence (P80365 whole entry): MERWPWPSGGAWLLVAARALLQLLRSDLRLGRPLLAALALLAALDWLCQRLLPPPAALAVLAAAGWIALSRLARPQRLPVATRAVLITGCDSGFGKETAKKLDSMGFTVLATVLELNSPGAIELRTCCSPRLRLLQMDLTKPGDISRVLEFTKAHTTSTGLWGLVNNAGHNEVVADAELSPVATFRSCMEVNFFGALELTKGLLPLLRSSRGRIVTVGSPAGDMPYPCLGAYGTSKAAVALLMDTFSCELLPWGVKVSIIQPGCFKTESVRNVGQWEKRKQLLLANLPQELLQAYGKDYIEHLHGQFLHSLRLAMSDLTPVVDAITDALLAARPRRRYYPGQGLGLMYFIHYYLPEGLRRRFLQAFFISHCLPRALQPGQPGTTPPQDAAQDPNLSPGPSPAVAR
Assay: Inhibition of human 11beta HSD2

SMILES | IC50 [nM]
Clc1ccc(C2(c3nnc4n3CCCCCC4)CCC2)cc1 | > 4000
Cn1c(-c2ccc(Oc3ccccc3)cc2)nnc1C1(c2ccc(Cl)cc2)CCC1 | > 4000
Cn1c(-c2cccc(O)c2)nnc1C1(c2ccc(Cl)cc2)CCC1 | > 4000
Cn1c(-c2ccc(C(C)(C)C)cc2)nnc1C1(c2ccc(Cl)cc2)CCC1 | > 4000
Cn1c(-c2ccc(C(F)(F)F)cc2)nnc1C1(c2ccc(Cl)cc2)CCC1 | > 4000
Cn1c(-c2ccccc2F)nnc1C1(c2ccc(Cl)cc2)CCC1 | > 4000
Cn1c(-c2ccc(F)cc2)nnc1C1(c2ccc(Cl)cc2)CCC1 | > 4000
Cn1c(-c2ccc(I)cc2)nnc1C1(c2ccc(Cl)cc2)CCC1 | > 4000
Cn1c(-c2ccc(Cl)cc2Cl)nnc1C1(c2ccc(Cl)cc2)CCC1 | > 4000
Cn1c(-c2cccc(F)c2)nnc1C1(c2ccc(Cl)cc2)CCC1 | > 4000
Cn1c(-c2ccc(-c3ccc(F)cc3)cc2)nnc1C1(c2ccc(Cl)cc2)CCC1 | > 4000
Cn1c(-c2ccc(O)c(F)c2)nnc1C1(c2ccc(Cl)cc2)CCC1 | > 4000
Cn1c(-c2cccc(OC(F)(F)F)c2)nnc1C1(c2ccc(Cl)cc2)CCC1 | > 4000
Cn1c(-c2ccc(Cl)cc2)nnc1C1(c2ccc(Cl)cc2)CCC1 | > 4000
COc1ccccc1-c1nnc(C2(c3ccc(Cl)cc3)CCC2)n1C | > 4000
